A short description of data set [1]: ThT fluorescence, self-assembly of peptide inhibitors without Tau. Type of data set: physicochemical. The following applies: ThT end-point 24 h, 37°C; 20 µM peptide without Tau, 5 µM heparin, 30 mM Tris, 1 mM DTT, 15 µM ThT, pH 7.4; triplicate. As for the experimental part: (§1) Fluorescence was measured (λex = 442 nm, λem = 483 nm), and data were normalized. […] The addition of inhibitor to the growth phase was controlled by adding an equivalent volume of buffer alone.
(§2) Experiments were conducted in triplicate and error bars were reported as standard deviation. Statistical analysis: p > 0.05, *p ≤ 0.05, **p ≤ 0.01, ***p ≤ 0.001.

For data set [2], the target named is T1, Tau^Δ1‐250 (Homo sapiens, UniProt P10636).
T1 construct: Tau^Δ1‐250 (an aggregate prone truncated version of full‐length Tau); made in house; host or cells: E. coli BL21(DE3)
In words: ThT fluorescence, heparin-induced aggregation of Tau^Δ1‐250. Type of data set: biochemical. The following applies: 5 µM heparin, pH 7.4, triplicate; for effect on Tau^Δ1‐250 aggregation (in words): ThT end-point 24 h, 20 µM Tau^Δ1‐250, 20 µM peptide. On the procedure: as §1, §2

In data set [3] the target is T2, Tau^2N4R (Homo sapiens, UniProt P10636).
T2 construct: and full‐length Tau (Tau^2N4R); made in house; host or cells: E. coli BL21
In words: ThT fluorescence end-point, heparin-induced aggregation of Tau^2N4R. It is filed as biochemical. The following applies: ThT end-point 216 h (9 days); Tau^2N4R, 20 µM peptide, 10 µM heparin, pH 7.4. On the procedure: as §1
FIGURE 3 Lead peptide RI‐AG03 dose‐response and target specificity. […] (C) Concentration‐dependent inhibition of by Tau^Δ1‐250 by RI‐AG03. […] (E) Concentration‐dependent inhibition of by Tau^2N4R by RI‐AG03. […] (F) log10 scatter graph of Tau^2N4R inhibition by RI‐AG03 employing a curve fitting algorithm to calculate the IC50 at 5 µM. Experiments were conducted in triplicate and error bars were reported as standard deviation. One factor repeated measures ANOVA + Tukey post hoc statistical analysis: p > 0.05, *p ≤ 0.05, **p ≤ 0.01, ***p ≤ 0.001.

The subject of data set [4] is Tau repeat domain (RD) with the P301S mutation fused to mCer and mClo, HEK293 biosensor cells. In words: Tau fibril seeding in FRET Tau biosensor cells. Type of data set: cell-based, human. As to conditions: biosensor cells, fibrils preincubated with 0–500 µM peptide; Figure 5C. As for the experimental part:
Tau biosensor cells culture: RD P301S Tau biosensor cells have been previously described,[45] and in this case v2L cells were used. Cells were cultured in 10 cm dishes containing Dulbecco's Modified Eagle's Medium (DMEM) (Gibco) enriched with 10% FBS (HyClone), 1% penicillin/streptomycin (Gibco), and 1% GlutaMAX (Gibco) at 37°C with 5% CO2 in a humidified incubator.
5 µM of tau fibrils (monomer equivalent) were incubated in PBS with peptide RI‐AG03 or scramble (0–500 µM) at 300 rpm agitation at 4°C for 16 h. The reaction was stopped by flash freezing in liquid nitrogen and stored at –20°C. Tau biosensor cells were plated at a density of 30,000 cells in 120 µL of media per well in a 96‐well plate. After 18 h, using Lipofectamine 2000 cells were transduced with 10 nM of treated fibrils that had been briefly sonicated for 30 s at 65 Amp (QSonica). Lipofectamine complexes were formed in 30 µL consisting of 14.17 µL Opti‐MEM (Gibco), 15 µL of treated fibrils diluted in PBS, and 0.83 µL lipofectamine 2000 (Invitrogen), bringing the total volume to 150 µL. […] Aggregates in Tau biosensors (10,000 minimum) were quantified by FRET flow cytometry in a LSRFortessa SORP (BD Biosciences). To detect the cerulean signal, cells were excited with a 405 nm laser, and fluorescence was captured at […]. For clover signal, cells were excited with a 488 nm laser and fluorescence was detected at 525/50 nm. Flow cytometry data were analyzed using a gating strategy previously described.[45], [47] The percentage of cells with positive FRET signal were quantified. Each condition was analyzed in quadruplicate. […]
To test RI‐AG03 efficacy in mammalian cells, we utilized a fluorescence resonance energy transfer (FRET) biosensor HEK293 cell line that stably expresses the Tau repeat domain (RD) with the P301S mutation fused to mCer and mClo. These cells[45] or prior generations[71] have been used extensively to quantify Tau seeding activity and measure intracellular aggregation.[71] […] Seeded aggregation was quantified by the percentage of FRET positivity.

Where a SMILES comes first, the peptide text is derived from it.

T1 sequence (P10636 568-758, stated change not applied): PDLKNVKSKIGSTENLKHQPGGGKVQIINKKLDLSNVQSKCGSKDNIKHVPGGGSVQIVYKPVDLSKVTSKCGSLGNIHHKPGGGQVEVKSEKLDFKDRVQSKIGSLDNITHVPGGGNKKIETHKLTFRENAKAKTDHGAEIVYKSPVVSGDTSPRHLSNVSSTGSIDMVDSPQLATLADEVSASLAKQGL
T2 sequence (P10636 1-441 isoform P10636-8): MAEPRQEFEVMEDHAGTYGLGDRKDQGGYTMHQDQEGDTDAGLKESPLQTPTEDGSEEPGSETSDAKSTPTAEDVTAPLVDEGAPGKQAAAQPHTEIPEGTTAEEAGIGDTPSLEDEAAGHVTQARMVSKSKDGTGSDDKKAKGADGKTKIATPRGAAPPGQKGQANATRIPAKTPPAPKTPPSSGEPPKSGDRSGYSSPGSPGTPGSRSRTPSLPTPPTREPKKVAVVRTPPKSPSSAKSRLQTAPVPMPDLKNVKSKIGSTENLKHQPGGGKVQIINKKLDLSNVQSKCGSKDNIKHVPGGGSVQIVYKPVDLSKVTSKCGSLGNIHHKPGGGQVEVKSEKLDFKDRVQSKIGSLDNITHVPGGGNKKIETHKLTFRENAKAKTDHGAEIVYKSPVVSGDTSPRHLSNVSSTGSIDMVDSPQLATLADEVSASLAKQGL

On to `CC[C@H](C)[C@H](NC(=O)[C@H](CCC(N)=O)NC(=O)[C@@H](NC(=O)CNC(=O)[C@H](CCCNC(=N)N)NC(C)=O)C(C)C)C(=O)N[C@H](C(=O)N[C@@H](CC(N)=O)C(=O)N[C@@H](CCCCN)C(=O)NCC(=O)N[C@@H](CCCNC(=N)N)C(N)=O)[C@@H](C)CC` [AG01] (Ac-RGVQIINKGR-NH2), for which, in data set [1], the “self-aggregation of peptide (in words)” value is recorded as “self‐aggregated”.

Take `CC[C@H](C)[C@H](NC(=O)[C@H](CCC(N)=O)NC(=O)[C@@H](NC(=O)CNC(=O)[C@H](CCCNC(=N)N)NC(C)=O)C(C)C)C(=O)N[C@H](C(=O)N[C@@H](Cc1ccc(O)cc1)C(=O)N[C@@H](CCCCN)C(=O)N1CCC[C@H]1C(=O)NCC(=O)N[C@@H](CCCNC(=N)N)C(=O)N[C@@H](CCCNC(=N)N)C(=O)N[C@@H](CCCNC(=N)N)C(=O)N[C@@H](CCCNC(=N)N)C(N)=O)C(C)C` [AG02PR5] (Ac-RGVQIVYKPGRRRR-NH2): the “effect on Tau^Δ1‐250 aggregation (in words)” value in data set [2] is “no additional benefit”. In the case of `CC[C@H](C)[C@H](NC(=O)[C@H](CCC(N)=O)NC(=O)[C@@H](NC(=O)CNC(=O)[C@H](CCCNC(=N)N)NC(C)=O)C(C)C)C(=O)N[C@H](C(=O)N[C@@H](Cc1ccc(O)cc1)C(=O)N[C@@H](CCCCN)C(=O)NCC(=O)N[C@@H](CCCNC(=N)N)C(=O)N[C@@H](Cc1ccc(O)cc1)C(=O)NCC(=O)N[C@@H](CCCNC(=N)N)C(=O)N[C@@H](CCCCN)C(=O)N[C@@H](CCCCN)C(=O)N[C@@H](CCCNC(=N)N)C(=O)N[C@@H](CCCNC(=N)N)C(=O)N[C@@H](CCC(N)=O)C(=O)N[C@@H](CCCNC(=N)N)C(=O)N[C@@H](CCCNC(=N)N)C(=O)N[C@@H](CCCNC(=N)N)C(N)=O)C(C)C` [AG02TAT] (Ac-RGVQIVYKGRYGRKKRRQRRR-NH2), in data set [1], the “self-aggregation of peptide (in words)” value was “greater self‐association into β‐sheets than all other AG02‐derived peptides”. For the same compound, the “effect on Tau^Δ1‐250 aggregation (in words)” value in data set [2] was “no significant additional inhibitory benefits”. For the compound `CC(=O)NCCCC[C@H](NC(=O)[C@H](CCC(N)=O)NC(=O)[C@@H](NC(=O)CNC(=O)[C@H](CCCNC(=N)N)NC(C)=O)C(C)C)C(=O)N[C@H](C(=O)N[C@@H](Cc1ccc(O)cc1)C(=O)N[C@@H](CCCCN)C(=O)NCC(=O)N[C@@H](CCCNC(=N)N)C(N)=O)C(C)C` [AG02∆I] (Ac-RGVQK(Ac)VYKGR-NH2), the “self-aggregation of peptide (in words)” value in data set [1] is given as “demonstrated self‐aggregation ability”. Still for that read-out and setting: with `CC[C@H](C)[C@H](NC(=O)[C@H](CCC(N)=O)NC(=O)[C@@H](NC(=O)CNC(=O)[C@H](CCCNC(=N)N)NC(C)=O)C(C)C)C(=O)N[C@@H](CCCCNC(C)=O)C(=O)N[C@@H](Cc1ccc(O)cc1)C(=O)N[C@@H](CCCCN)C(=O)NCC(=O)N[C@@H](CCCNC(=N)N)C(N)=O` [AG02∆V] (Ac-RGVQIK(Ac)YKGR-NH2) the entry was “demonstrated a tendency for self‐aggregation, though to a smaller extent”.

For the compound `CC[C@H](C)[C@H](NC(=O)[C@H](CCC(N)=O)NC(=O)[C@@H](NC(=O)CNC(=O)[C@H](CCCNC(=N)N)NC(C)=O)C(C)C)C(=O)N[C@@H](CCCCNC(C)=O)C(=O)N[C@@H](Cc1ccc(O)cc1)C(=O)N[C@@H](CCCCN)C(=O)N1CCC[C@H]1C(=O)NCC(=O)N[C@@H](CCCNC(=N)N)C(=O)N[C@@H](CCCNC(=N)N)C(=O)N[C@@H](CCCNC(=N)N)C(=O)N[C@@H](CCCNC(=N)N)C(=O)N[C@@H](CCCNC(=N)N)C(=O)N[C@@H](CCCNC(=N)N)C(=O)N[C@@H](CCCNC(=N)N)C(=O)N[C@@H](CCCNC(=N)N)C(N)=O` [AG03] (Ac-RGVQIK(Ac)YKPGRRRRRRRR-NH2), the “self-aggregation of peptide (in words)” value in data set [1] is given as “minimal self‐aggregation”. For the same compound, the “inhibition of Tau^Δ1‐250 aggregation” value in data set [2] (ThT end-point after 24 h, 37°C, 20 µM Tau^Δ1‐250, 20 µM peptide (equimolar), 30 mM Tris, 1 mM DTT, 15 µM ThT) is recorded as roughly 53%. Take `CC[C@H](C)[C@H](NC(=O)[C@H](CCC(N)=O)NC(=O)[C@@H](NC(=O)CNC(=O)[C@H](CCCNC(=N)N)NC(=O)[C@H](CCCNC(=N)N)NC(=O)[C@H](CCCNC(=N)N)NC(=O)[C@H](CCCNC(=N)N)NC(C)=O)C(C)C)C(=O)N[C@H](C(=O)N[C@@H](Cc1ccc(O)cc1)C(=O)N[C@@H](CCCCN)C(=O)NCC(=O)N[C@@H](CCCNC(=N)N)C(N)=O)C(C)C` [AGR502] (Ac-RRRRGVQIVYKGR-NH2): in data set [2], the “effect on Tau^Δ1‐250 aggregation (in words)” value is given as “did not affect peptide inhibitory action”. Consider `CC(=O)N[C@@H](CCCNC(=N)N)C(=O)N[C@@H](CCCNC(=N)N)C(=O)N[C@@H](CCCNC(=N)N)C(=O)N[C@@H](CCCNC(=N)N)C(=O)N[C@@H](CCCNC(=N)N)C(=O)N[C@@H](CCCNC(=N)N)C(=O)N[C@@H](CCCNC(=N)N)C(=O)N[C@@H](CCCNC(=N)N)C(=O)N[C@@H](CCCNC(=N)N)C(N)=O` [Poly‐arginine, reference compound], for which, in data set [2], the “effect on Tau^Δ1‐250 aggregation (in words)” value was “no effect on aggregation”. In the case of `CC[C@H](C)[C@H](NC(=O)[C@H](CCCCN)NC(=O)[C@@H]1CCCN1C(=O)[C@H](CCC(N)=O)NC(=O)CNC(=O)[C@H](CCCNC(=N)N)NC(C)=O)C(=O)N[C@@H](CCCCNC(C)=O)C(=O)N[C@@H](Cc1ccc(O)cc1)C(=O)N[C@H](C(=O)NCC(=O)N[C@@H](CCCNC(=N)N)C(=O)N[C@@H](CCCNC(=N)N)C(=O)N[C@@H](CCCNC(=N)N)C(=O)N[C@@H](CCCNC(=N)N)C(=O)N[C@@H](CCCNC(=N)N)C(=O)N[C@@H](CCCNC(=N)N)C(=O)N[C@@H](CCCNC(=N)N)C(=O)N[C@@H](CCCNC(=N)N)C(N)=O)C(C)C` [Scramble AG03, reference compound] (Ac-RGQPKIK(Ac)YVGRRRRRRRR-NH2), the “effect on Tau^2N4R aggregation (in words)” value in data set [3] is reported as “did not suppress aggregation”. In addition, the “effect on Tau^Δ1‐250 aggregation (in words)” value in data set [2] is given as “no effect on aggregation”. For the same compound, the “concentrations with peptide‐induced toxicity (decrease in FRET positivity)” value in data set [4] was “above 100 µM”.

Source of the values: paper PMC11567856, “A novel peptide‐based tau aggregation inhibitor as a potential therapeutic for Alzheimer's disease and other tauopathies” (Alzheimer's & Dementia, 2024).
